From patent publication US10280179B2, “Spiroquinoxaline derivatives as inhibitors of non-apoptotic regulated cell-death” (Helmholtz Zentrum Munchen—Deutches Forschungszentrum Fur …, priority 2013, dated 2019)

Columns and labels:
Assay type in all cases: cell-based
[1] = test system: mouse hippocampal cell line (Ht22); assay: Inhibition of glutamate-induced non-apoptotic cell death (Example B.2); conditions: HT-22, Ht22 cells, glutamate-induced cell death, read-out: Ht22/GLU
Source text: Inhibition of Glutamate-Induced Non-Apoptotic Cell Death by Compounds of the Present Invention
Glutamate toxicity is conferred on cells from the mouse hippocampal cell line (Ht22) by inhibition of the cysteine/glutamate antiporter, System xc-, leading to impaired cysteine uptake and subsequent GSH depletion. This model is frequently used for mimicking glutathione depletion following oxidative stress in stroke, brain trauma and other neurodegenerative diseases and cellular conditions following ischemia (for example: van Leyen et al, J. Neurochem. 92:824-30 (2005)).
Compounds disclosed herein were evaluated for their ability to promote cell survival upon administration of a lethal dose of glutamate (GLU) to the cell-culture medium.
Briefly, Ht22 cells (ATCC) were propagated DMEM supplemented with 10% FBS/1% Penicillin-Streptomycin, and then seeded onto 96-well plates at a concentration of 2,000 cells/well in 100 μL of MEDIA, simultaneously with glutamate (Sigma Aldrich) to a final concentration of 5 mM, together with increasing concentrations of the compound to be tested (0.5 pM to 100 μM), and the plates incubated at 37° C./5% CO2 for 72 hours. Compound dilutions were prepared from 10 mM stocks dissolved in DMSO and diluted in media. Cells treated with glutamate alone were used as negative control and alpha-tocopherol (Sigma Aldrich) was used as positive control. Compound concentrations were tested in triplicate. After incubation, cell survival was detected and quantified as described in Example B.1.

Pfa1 cells = assay: Inhibition of non-apoptotic cell death after tamoxifen-induced GPx4 knockout in a recombinant cell line (Example B.4); conditions: Mus musculus, read-out: Pfa1/TAM IC50
Source text: Inhibition of Non-Apoptotic Cell-Death by Compounds Disclosed Herein Using a Recombinant Cell Line
To combat high intracellular ROS levels, mammalian cells have evolved an intricate network of ROS scavenging in cells, in which the thioredoxin and glutathione (GSH) dependent systems prevail. […] Knockout of GPx4 in neurons causes massive neurodegeneration in cortical, cerebellar and hippocampal neurons underscoring the high relevance of ROS-induced cell death signaling in the brain. Briefly, immortalised fibroblasts from these mice were made to contain tamoxifen-inducible CreERT2, which catalyzes the functional ablation of both copies of GPx4 and resulting in a complete knockout of GPx4, a massive ROS burst, and cell death in cell culture. These cells (Pfa1 cells) were used to characterize compounds of the present invention, whereby tamoxifen (TAM) was given on day 0 along with the compound under test, and 72 hours later cell survival was evaluated using AlamarBlue.

[2] = Cellular toxicity, same assay as Example B.4 without TAM (Example B.5); conditions: mouse; Pfa1 cells without TAM; read-out: TC50 (the source's name)
Source text: Cellular Toxicity of Compounds of the Invention
An estimate of the toxicity for compounds of the invention was obtained by using the same assay as described in Example B.4, but without the addition of TAM. […] Such TC50 values obtained for certain compounds disclosed herein, together with an approximate therapeutic window (estimated by dividing each TC50 by the corresponding IC50 determined from example B.4) are shown in Table 3.

| Structure (SMILES) | IC50 [1] | IC50 (Pfa1 cells) | CC50 [2] |
| --- | --- | --- | --- |
| Fc1cc(Cl)ccc1CNC1=Nc2ccccc2NC12CCOCC2 [O/S-61] | < 1 µM | < 1 µM | 20 to 50 µM |
| Clc1cccc(CCNC2=Nc3ccccc3NC23CCOCC3)c1 [O/S-79] | < 1 µM | < 1 µM | 20 to 50 µM |
| Clc1ccccc1CNC1=Nc2ccccc2NC12CCSCC2 [O/S-167] | < 1 µM | < 0.5 µM | 20 to 50 µM |
| Clc1ccc(CNC2=Nc3ccccc3NC23CCSCC3)cc1 [O/S-169] | < 1 µM | < 1 µM | 20 to 50 µM |
| FC(F)(F)c1cccc(CNC2=Nc3ccccc3NC23CCSCC3)c1 [O/S-189] | < 5 µM | < 5 µM | 50 to 100 µM |
| Fc1cccc(F)c1CNC1=Nc2ccccc2NC12CCOCC2 [O/S-341] | < 2 µM | < 2 µM | 50 to 100 µM |
| c1ccc(CCCNC2=Nc3ccccc3NC23CCOCC3)cc1 [O/S-343] | < 5 µM | < 2 µM | 20 to 50 µM |
| Cc1cc(C)cc(CNC2=Nc3ccccc3NC23CCOCC3)c1 [O/S-344] | < 2 µM | < 1 µM | 20 to 50 µM |
| Fc1cc2c(cc1F)NC1(CCOCC1)C(NCc1ccccc1)=N2 [O/S-346] | < 1 µM | < 0.5 µM | 50 to 100 µM |
| c1ccc(CCNC2=Nc3ccccc3NC23CCOCC3)cc1 [O/S-347] | < 5 µM | < 5 µM | 50 to 100 µM |
| CC(NC1=Nc2ccccc2NC12CCOCC2)c1ccccc1 (stereo not drawn) [O/S-348] | < 5 µM | < 5 µM | 50 to 100 µM |
| Clc1cc2c(cc1Cl)NC1(CCSCC1)C(NCc1ccccc1)=N2 [O/S-349] | < 0.5 µM | < 0.2 µM | 20 to 50 µM |
| CC(C)(C)c1ccc(CNC2=Nc3ccccc3NC23CCOCC3)cc1 [O/S-350] | < 0.5 µM | < 0.5 µM | 20 to 50 µM |
| Fc1cccc(F)c1CNC1=Nc2ccccc2NC12CCSCC2 [O/S-351] | < 1 µM | < 1 µM | 50 to 100 µM |
| c1ccc(C(CNC2=Nc3ccccc3NC23CCOCC3)c2ccccc2)cc1 [O/S-352] | < 1 µM | < 1 µM | 20 to 50 µM |
| CC(CCc1ccccc1)NC1=Nc2ccccc2NC12CCOCC2 (stereo not drawn) [O/S-353] | < 2 µM | < 0.5 µM | 20 to 50 µM |
| Clc1ccc(CNC2=Nc3ccccc3NC23CCOCC3)c(Cl)c1 [O/S-354] | < 0.5 µM | < 0.5 µM | 20 to 50 µM |
| Fc1ccc(CNC2=Nc3ccccc3NC23CCOCC3)c(F)c1 [O/S-355] | < 2 µM | < 2 µM | 50 to 100 µM |
| c1ccc(CCCNC2=Nc3ccccc3NC23CCSCC3)cc1 [O/S-356] | < 2 µM | < 2 µM | 20 to 50 µM |
| Cc1cc(C)cc(CNC2=Nc3ccccc3NC23CCSCC3)c1 [O/S-357] | < 0.5 µM | < 0.5 µM | 10 to 20 µM |
| c1ccc(CCCCNC2=Nc3ccccc3NC23CCOCC3)cc1 [O/S-358] | < 2 µM | < 2 µM | 10 to 20 µM |
| Fc1ccc(CNC2=Nc3ccccc3NC23CCSCC3)c(F)c1 [O/S-359] | < 5 µM | > 5 µM | 50 to 100 µM |
